Test results taken from PubChem BioAssay (NCI).
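Method: 48-hour compound exposure of cells in 96-well plates, five concentrations, linear interpolation of endpoints. TGI marks complete inhibition of growth.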 Where a SMILES comes first, the peptide text is derived from it. The star is where a group is joined. Boc = CC(C)(C)OC(=O)*; nBu = CCCC*

Key:
Assay in all cases: NCI anticancer screen, dose series, 48 h
BT-549 breast = tested on: BT-549 breast
HCT-15 colon = tested on: HCT-15 colon
KM12 colon = tested on: KM12 colon
MDA-MB-435 = tested on: MDA-MB-435
RXF 393 renal = tested on: RXF 393 renal
SF-268 CNS = tested on: SF-268 CNS
SK-MEL-5 melanoma = tested on: SK-MEL-5 melanoma
SK-OV-3 ovarian = tested on: SK-OV-3 ovarian
SNB-75 CNS = tested on: SNB-75 CNS
UACC-62 melanoma = tested on: UACC-62 melanoma

N#C/C(=C(/O)CCl)c1nc2ccccc2o1
TGI (BT-549 breast): 5.01 µM | TGI (HCT-15 colon): 4.46 µM | TGI (KM12 colon): 53.3 µM | TGI (MDA-MB-435): 10.8 µM | TGI (RXF 393 renal): 3.77 µM | TGI (SF-268 CNS): 8.57 µM | TGI (SK-MEL-5 melanoma): 3.83 µM | TGI (SK-OV-3 ovarian): 24.7 µM | TGI (SNB-75 CNS): 23.4 µM | TGI (UACC-62 melanoma): 6.27 µM

CC1(C)OC[C@@H]([C@@]2(COC(c3ccccc3)(c3ccccc3)c3ccccc3)CC=CC(=O)O2)O1
TGI (BT-549 breast): 74.4 µM | TGI (HCT-15 colon): > 100 µM | TGI (KM12 colon): > 100 µM | TGI (MDA-MB-435): > 100 µM | TGI (RXF 393 renal): 69.5 µM | TGI (SF-268 CNS): > 100 µM | TGI (SK-OV-3 ovarian): > 100 µM | TGI (SNB-75 CNS): 59.3 µM | TGI (UACC-62 melanoma): > 100 µM

Oc1ccccc1C=Nc1ccc(-c2nc3ccccc3s2)cc1
TGI (BT-549 breast): > 100 µM | TGI (HCT-15 colon): > 100 µM | TGI (KM12 colon): > 100 µM | TGI (MDA-MB-435): > 100 µM | TGI (RXF 393 renal): > 100 µM | TGI (SF-268 CNS): > 100 µM | TGI (SK-MEL-5 melanoma): 31.9 µM | TGI (SK-OV-3 ovarian): > 100 µM | TGI (SNB-75 CNS): 99.3 µM | TGI (UACC-62 melanoma): 66.3 µM

O=C(Cc1nc2ccccc2[nH]c1=O)c1c[nH]c2ccccc12
TGI (BT-549 breast): 29.6 µM | TGI (HCT-15 colon): > 100 µM | TGI (KM12 colon): 58 µM | TGI (MDA-MB-435): > 100 µM | TGI (RXF 393 renal): 46.1 µM | TGI (SF-268 CNS): > 100 µM | TGI (SK-MEL-5 melanoma): 26.9 µM | TGI (SK-OV-3 ovarian): 47.6 µM | TGI (SNB-75 CNS): > 100 µM | TGI (UACC-62 melanoma): 29 µM

Cc1cc(-c2nc3c(F)cccc3s2)ccc1N
TGI (BT-549 breast): > 100 µM | TGI (HCT-15 colon): > 100 µM | TGI (KM12 colon): > 100 µM | TGI (MDA-MB-435): > 100 µM | TGI (RXF 393 renal): > 100 µM | TGI (SF-268 CNS): > 100 µM | TGI (SK-MEL-5 melanoma): > 100 µM | TGI (SK-OV-3 ovarian): > 100 µM | TGI (SNB-75 CNS): > 100 µM | TGI (UACC-62 melanoma): > 100 µM

C=C1C(O)C2(O)OCC34C(CC5C(C)=CC(=O)C(O)C5(C)C23)OC(=O)C(OC(=O)C/C=C/CCCCCCCC)C14 (centres undefined)
TGI (HCT-15 colon): 0.0979 µM | TGI (KM12 colon): 0.0751 µM | TGI (RXF 393 renal): 0.0211 µM | TGI (SF-268 CNS): 0.035 µM | TGI (SK-OV-3 ovarian): 0.606 µM | TGI (SNB-75 CNS): 0.0667 µM | TGI (UACC-62 melanoma): 0.0292 µM

COC(=O)/C=C\C(C#N)(C#N)N=Cc1ccc(OC)cc1
TGI (BT-549 breast): 10.4 µM | TGI (HCT-15 colon): 13.2 µM | TGI (KM12 colon): 32.6 µM | TGI (MDA-MB-435): 5.44 µM | TGI (RXF 393 renal): 5.42 µM | TGI (SF-268 CNS): 11.5 µM | TGI (SK-MEL-5 melanoma): 32.6 µM | TGI (SK-OV-3 ovarian): 31 µM | TGI (SNB-75 CNS): 34.2 µM | TGI (UACC-62 melanoma): 30 µM

COc1ccc(C2C3CCc4ccccc4C3=NN2S(=O)(=O)c2cccc(C(=O)O)c2OC)cc1 (centres undefined)
TGI (BT-549 breast): > 100 µM | TGI (HCT-15 colon): 0.778 µM | TGI (KM12 colon): > 100 µM | TGI (MDA-MB-435): 4.15 µM | TGI (RXF 393 renal): 62 µM | TGI (SF-268 CNS): > 100 µM | TGI (SK-MEL-5 melanoma): > 100 µM | TGI (SK-OV-3 ovarian): 17.7 µM | TGI (UACC-62 melanoma): > 100 µM

CC(C)CC(N)C(=O)NC(C(=O)NC(CCCNC(=N)N)C(=O)NC(CS)C(=O)NC1CSCC(C(=O)NC(Cc2ccccc2)C(=O)NC(C(=O)NC(CCCNC(=N)N)C(=O)O)C(C)C)NC(=O)C2CCCN2C(=O)C(CCCCN)NC(=O)C2CCCN2C(=O)C2CCCN2C(=O)C(Cc2ccc(O)cc2)NC(=O)C(CO)NC(=O)C(CCCCN)NC(=O)C(C(C)O)NC(=O)C(Cc2c[nH]c3ccccc23)NC1=O)C(C)C (centres undefined)
TGI (BT-549 breast): > 25 µM | TGI (HCT-15 colon): > 25 µM | TGI (KM12 colon): > 25 µM | TGI (MDA-MB-435): > 25 µM | TGI (SF-268 CNS): > 25 µM | TGI (SK-MEL-5 melanoma): > 25 µM | TGI (SK-OV-3 ovarian): > 25 µM | TGI (UACC-62 melanoma): > 25 µM

COC(=O)c1c(O)ccc2c1c1cc3ccccc3c(O)c1n2CCc1ccc(OC)c(OC)c1
TGI (BT-549 breast): > 100 µM | TGI (HCT-15 colon): > 100 µM | TGI (KM12 colon): > 100 µM | TGI (MDA-MB-435): > 100 µM | TGI (RXF 393 renal): > 100 µM | TGI (SF-268 CNS): > 100 µM | TGI (SK-MEL-5 melanoma): > 100 µM | TGI (SK-OV-3 ovarian): > 100 µM | TGI (UACC-62 melanoma): > 100 µM

Cc1c(-c2ccccc2)[nH]c2cn[nH]c(=O)c12
TGI (BT-549 breast): > 100 µM | TGI (HCT-15 colon): > 100 µM | TGI (KM12 colon): > 100 µM | TGI (MDA-MB-435): > 100 µM | TGI (SF-268 CNS): > 100 µM | TGI (SK-MEL-5 melanoma): > 100 µM | TGI (SK-OV-3 ovarian): > 100 µM | TGI (UACC-62 melanoma): > 100 µM

CCCCOc1ccc(CC(NC(=O)OC(C)(C)C)C(=O)NC(C)C(=O)NC(Cc2ccccc2)C(=O)NCC(N)=O)cc1 (centres undefined) (Boc-Y(nBu)AFG-NH2; configuration not given here)
TGI (BT-549 breast): > 100 µM | TGI (HCT-15 colon): > 100 µM | TGI (KM12 colon): > 100 µM | TGI (MDA-MB-435): > 100 µM | TGI (RXF 393 renal): > 100 µM | TGI (SF-268 CNS): > 100 µM | TGI (SK-MEL-5 melanoma): > 100 µM | TGI (SK-OV-3 ovarian): > 100 µM | TGI (SNB-75 CNS): > 100 µM | TGI (UACC-62 melanoma): > 100 µM

Cc1ccc(-c2cn3c(nc4ccccc43)c(/C=C/c3ccco3)n2)cc1
TGI (BT-549 breast): > 100 µM | TGI (HCT-15 colon): > 100 µM | TGI (KM12 colon): > 100 µM | TGI (MDA-MB-435): > 100 µM | TGI (RXF 393 renal): > 100 µM | TGI (SF-268 CNS): > 100 µM | TGI (SK-MEL-5 melanoma): > 100 µM | TGI (SK-OV-3 ovarian): > 100 µM | TGI (SNB-75 CNS): > 100 µM | TGI (UACC-62 melanoma): > 100 µM

C/C(C=O)=C/[C@@]1(C)O[C@@H](C)[C@@](C)(O)[C@@H]1O
TGI (HCT-15 colon): 51.5 µM | TGI (KM12 colon): > 100 µM | TGI (MDA-MB-435): > 100 µM | TGI (RXF 393 renal): > 100 µM | TGI (SF-268 CNS): 63.7 µM | TGI (SK-MEL-5 melanoma): > 100 µM | TGI (SK-OV-3 ovarian): > 100 µM | TGI (UACC-62 melanoma): > 100 µM

C#C[C@]1(O)CC[C@H]2[C@@H]3CCc4cc(O)ccc4[C@H]3CC[C@@]21C
TGI (HCT-15 colon): > 100 µM | TGI (KM12 colon): > 100 µM | TGI (RXF 393 renal): 62.2 µM | TGI (SF-268 CNS): > 100 µM | TGI (SK-MEL-5 melanoma): 52.2 µM | TGI (SK-OV-3 ovarian): 79.7 µM | TGI (SNB-75 CNS): 42.8 µM | TGI (UACC-62 melanoma): > 100 µM

O=C(Nc1ccccc1)Oc1ccc(C(=S)Nc2ccc(Br)cc2)cc1
TGI (BT-549 breast): 36.6 µM | TGI (HCT-15 colon): 34.5 µM | TGI (KM12 colon): 32.4 µM | TGI (MDA-MB-435): 39.7 µM | TGI (SF-268 CNS): > 100 µM | TGI (SK-MEL-5 melanoma): 31.1 µM | TGI (SK-OV-3 ovarian): > 100 µM | TGI (UACC-62 melanoma): 30 µM
